Measured values published in US10696648B2, “Inhibitors of indoleamine 2,3-dioxygenase and methods of their use” (BRISTOL-MYERS SQUIBB COMPANY, priority 2016, dated 2020).

The molecules below were run against T1, human IDO1 (Homo sapiens, UniProt P14902) (assay: HEK293 cells stably expressing human IDO1, IDO inhibition assay (kynurenine, Ehrlich reagent)). Conditions: 20 hours incubation, absorbance at 490 nm, read-out: HEK Human IDO-1 Bio Activity (IDO IC50).
T1 construct: expressed in transfected cells
T1 sequence (P14902 whole entry): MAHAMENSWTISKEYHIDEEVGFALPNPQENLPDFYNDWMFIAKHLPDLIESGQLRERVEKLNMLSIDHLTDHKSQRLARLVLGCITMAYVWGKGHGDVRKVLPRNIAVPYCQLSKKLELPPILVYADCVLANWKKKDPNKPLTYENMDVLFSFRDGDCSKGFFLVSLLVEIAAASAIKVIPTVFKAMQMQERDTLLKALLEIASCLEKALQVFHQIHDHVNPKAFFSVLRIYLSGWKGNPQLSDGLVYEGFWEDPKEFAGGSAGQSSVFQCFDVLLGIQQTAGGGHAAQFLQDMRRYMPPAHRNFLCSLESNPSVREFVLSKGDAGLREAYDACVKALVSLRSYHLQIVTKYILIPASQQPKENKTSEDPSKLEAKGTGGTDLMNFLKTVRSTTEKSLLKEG
Format: cell-based
Procedure: HEK293 cells were transfected with a pCDNA-based mammalian expression vector harboring human IDO1 cDNA (NM 002164.2) by electroporation. They were cultured in medium (DMEM with 10% FBS) containing 1 mg/ml G418 for two weeks. Clones of HEK293 cells that stably expressed human IDO1 protein were selected and expanded for IDO inhibition assay. The human IDO1/HEK293 cells were seeded at 10,000 cells per 50 μL per well with RPMI/phenol red free media contains 10% FBS in a 384-well black wall clear bottom tissue culture plate (Matrix Technologies LLC) 100 nL of certain concentration of compound was then added to each well using ECHO liquid handling systems. The cells were incubated for 20 hours in 37° C. incubator with 5% CO2. The compound treatments were stopped by adding trichloroacetic acid (Sigma-Aldrich) to a final concentration at 0.2%. The cell plate was further incubated at 50° C. for 30 minute. The equal volume supernatant (20 μL) and 0.2% (w/v) Ehrlich reagent (4-dimethylaminobenzaldehyde, Sigma-Aldrich) in glacial acetic acid were mixed in a new clear bottom 384-well plate. This plate was then incubated at room temperature for 30 minute. The absorbance at 490 nm was measured on Envision plate reader. Compound IC50 values were calculated using the counts of 500 nM of a reference standard treatment as one hundred percent inhibition, and counts of no compound but DMSO treatment as zero percent inhibition.

IC50 [nM] | Compound
< 100 | C[C@@H](NC(=O)N(Cc1ccc(CC(=O)O)cc1)[C@H]1CC[C@H](c2ccnc3ccc(F)cc32)CC1)c1ccc(F)cc1 [Example 41, 2-(4-((3-((R)-1-(4-fluorophenyl)ethyl)-1-((1 r,4R)-4-(6-fluoroquinolin-4-yl)cyclohexyl)ureido)methyl)phenyl)acetic Acid]
< 100 | COc1ccc(CN(C(=O)NC2CCCCC2)[C@H]2CC[C@H](c3ccccc3)CC2)cc1 [Example 43, 3-cyclohexyl-1-(4-methoxybenzyl)-1-((1r,4r)-4-phenylcyclohexyl)urea]
< 1000 | COc1ccc(CN(C(=O)NC2CCCC2)C2CCC(c3ccccc3)CC2)cc1 (stereo not shown) [Example 44, 3-cyclopentyl-1-(4-methoxybenzyl)-1-((1r,4r)-4-phenylcyclo-hexyl)urea]
< 1000 | COc1ccc(CN(C(=O)NC2CC2)C2CCC(c3ccccc3)CC2)cc1 (stereo not shown) [Example 45, 3-cyclopropyl-1-(4-methoxybenzyl)-1-((1r,4r)-4-phenylcyclo-hexyl)urea]
